Results reported in patent US6093731A, “Isoquinolines” (priority 1999, dated 2000).
Counter-ions that a name gives are not always drawn.

molecular target: T1, human urokinase (Homo sapiens, UniProt P00749); assay: urokinase inhibition assay (S-2444 substrate); assay type: biochemical; settings: not given
T1 construct: the urokinase used was HMWT Human Urokinase (Calbiochem 672081); purchased Calbiochem 672081

Ki, ≤ 20 nM:
NC(N)=Nc1ncc(Cl)c2ccc(S(=O)(=O)NC3(C(=O)O)CCCCC3)cc12 [43(b), 1-{[(4-Chloro-1-guanidino-7-isoquinolinyl)sulphonyl]amino}cyclohexanecarboxylic acid hydrochloride]
CN1CCN(C(=O)C2(NS(=O)(=O)c3ccc4c(Cl)cnc(N=C(N)N)c4c3)CCCC2)CC1 [Example 79, 4-Chloro-1-guanidino-N-{1-[(4-methylpiperazino)carbonyl]cyclopentyl}-7-isoquinolinesulphonamide dihydrochloride]
NC(N)=Nc1ncc(Cl)c2ccc(S(=O)(=O)NC3(C(=O)N4CCOCC4)CCCC3)cc12 [Example 78, 4-Chloro-1-guanidino-N-[1-(morpholinocarbonyl)cyclopentyl]-7-isoquinolinesulphonamide hydrochloride]
NC(N)=Nc1ncc(Cl)c2ccc(S(=O)(=O)N3CCC[C@@H]3C(=O)O)cc12 [Example 32(b), N-[(4-Chloro-1-guanidino-7-isoquinolinyl)sulphonyl]-D-proline hydrochloride]

same assay, conditions: read-out: Ki values vs. urokinase

Ki, ≤ 20 nM:
CN(C)CCNC(=O)C1(NS(=O)(=O)c2ccc3c(Cl)cnc(N=C(N)N)c3c2)CCCC1 [Example 39(a), 1-{[(4-Chloro-1-guanidino-7-isoquinolinyl)sulphonyl]amino}-N-[2-(dimethylamino)ethyl]cyclopentanecarboxamine]
CN(C)CCN(C1(C(=O)O)CCCC1)S(=O)(=O)c1ccc2c(Br)cnc(NC(=N)N)c2c1 [84(b), N-({4-Bromo-1-guanidino-7-isoquinolinyl}sulphonyl)-N-[2-(dimethylamino)ethyl]cycloleucine dihydrochloride]
N=C(N)Nc1ncc(Cl)c2ccc(S(=O)(=O)N(CCOC3CCCCO3)C3(C(=O)O)CCCC3)cc12 (stereo not drawn) [Example 87(b), 1-{[(4-Chloro-1-guanidino-7-isoquinolinyl)sulphonyl][2-(tetrahydro-2H-pyran-2-yloxy)ethyl]amino}cyclopentanecarboxylic acid]
NC(N)=Nc1ncc(Cl)c2ccc(S(=O)(=O)N3CCOC(=O)C34CCCC4)cc12 [Example 87(c), N"-{4-Chloro-7-[(10-oxo-9-oxa-6-azaspiro [4.5]dec-6-yl)sulphonyl]-1-isoquinolinyl}guanidine hydrochloride]
CN(CCO)C(=O)C1(NS(=O)(=O)c2ccc3c(Cl)cnc(NC(=N)N)c3c2)CCCC1 [Example 75, 1-[({4-Chloro-1-guanidino-7-isoquinolinyl}sulphonyl)amino]-N-(2-hydroxyethyl)-N-methylcyclopentanecarboxamide hydrochloride]
NC(N)=Nc1ncc(Cl)c2ccc(S(=O)(=O)NC3(C(=O)O)CCCC3)cc12 [37(b), N-[(4-Chloro-1-guanidino-7-isoquinolinyl)sulphonyl]cycloleucine]
COCCNC(=O)C1(NS(=O)(=O)c2ccc3c(Cl)cnc(NC(=N)N)c3c2)CCCC1 [Example 76, 1-[({4-Chloro-1-guanidino-7-isoquinolinyl}sulphonyl)amino]-N-(2-methoxyethyl)cyclopentanecarboxamide hydrochloride]
NC(N)=Nc1ncc(Cl)c2ccc(S(=O)(=O)NC3(C(=O)NCCO)CCCC3)cc12 [Example 38, 1-{[(4-Chloro-1-guanidino-7-isoquinolinyl)sulphonyl]amino}-N-(2-hydroxyethyl)cyclopentanecarboxamine hydrochloride]
